Numbered stars: 1 amine (or outer) side, 2 acyl side, 3 side chain; on linkers, the order of the positions; unused ones are H or OH. Square brackets hold non-standard residues; d marks the D form. Peptide text beside a SMILES is read from it. * marks the point of attachment. γGlu = O=C(O)[C@H](CCC(=O)[*:2])N[*:1]; dPhg = N[C@@H](C(=O)O)c1ccccc1; Bn = c1ccc(C*)cc1
Key:
[1] = cited from earlier work
GST P1-1 = GST P1-1 (Homo sapiens, UniProt P09211); details: purified GST P1-1 isoenzyme; read-out: GST P1-1 inhibition IC50; cited from earlier work
[2] = MDS clinical trial, interim results; cited from earlier work
GSTπ = biological target: T1, GSTπ (Homo sapiens, UniProt P09211); experiment: cellular GSTπ inhibition: immunoprecipitable GSTπ in HL-60 cell lysate, Western blot; format: cell-based
T1 construct: host or cells: HL-60 human promyelocytic leukemia cells
Method: RPMI 1640 medium, NuPAGE® LDS sample buffer (non-reducing lithium dodecyl sulfate buffer, Catalog # NP0007), and NuPAGE® Novex 4-12% Bis-Tris polyacrylamide gels (Catalog # NP0321) were obtained from Invitrogen, Inc., Carlsbad, Calif., U.S.A. Complete Mini protease inhibitor cocktail tablets (Catalog # 04 693 124 001) were obtained from Roche Diagnostics, Inc., Indianapolis, Ind., U.S.A., and were used according to package directions. Lysis buffer (50 mM Tris, pH 8.0, 120 mM NaCl, 0.5% NP-40, and 100 mM NaF) was prepared at Telik, Inc., and the protease inhibitors added shortly before use.
HL-60 cells were seeded at 6×10^5 cells/mL in 20 mL RPMI 1640 medium supplemented with 10% fetal bovine serum, 1 mM L-glutamine and 20 μM gentamycin in each of six T75 flasks, and incubated at 37° C. overnight in a 5% CO2 atmosphere. […] The contents of each flask were then treated as follows: the cells were pelleted by centrifugation and the cell pellet washed twice with phosphate-buffered saline. The cells were then lysed by suspending the pellet in 1 mL lysis buffer, and incubating with gentle agitation at 4° C. for 30 minutes. The cell lysate was cleared by centrifugation at 13,000 rpm for 10 minutes, and the protein content of the lysate was measured using the Bio-Rad protein assay kit. Cell lysate containing 1 mg total proteins was incubated at 4° C. overnight with 4.2 μg of purified mouse monoclonal anti-human GSTπ antibody in 1 mL total volume. Protein A/G agarose beads, 50 μL, were added to the mixture and incubated at 4° C. for 1 hour. The beads were collected by centrifugation, washed three times in lysis buffer, and resuspended in 10 μL 1× non-reducing lithium dodecyl sulfate buffer, and the suspension heated at 95° C. for 5 minutes. The proteins from the six cell lysates, together with a molecular weight marker, were then separated by electrophoresis on a 4-12% Bis-Tris gel and transferred to a nitrocellulose membrane. […] The GSTπ protein bands were visualized and the summed intensities of the GST P1-1 dimer and GST P1 monomer bands quantitated on an Odyssey infrared scanner.

[3] = system: hematopoietic progenitor cells in normal human peripheral blood; details: all three lineages; cited from earlier work
[4] = system: HL-60 promyelocytic leukemia cells; details: in vitro; cited from earlier work
[5] = normal animals and animals depleted by cisplatin or fluorouracil; cited from earlier work
[6] = HL-60 cells, 1-40 μM, two hours

T1 sequence (P09211 2-210 limits assumed): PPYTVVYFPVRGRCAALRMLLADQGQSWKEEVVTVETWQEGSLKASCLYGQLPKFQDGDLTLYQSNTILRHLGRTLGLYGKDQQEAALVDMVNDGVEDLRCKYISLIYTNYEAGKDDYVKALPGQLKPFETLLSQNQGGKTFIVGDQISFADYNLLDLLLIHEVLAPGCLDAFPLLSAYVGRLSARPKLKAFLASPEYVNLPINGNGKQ
GST P1-1, sequence (P09211 2-210 limits assumed, species assumed): as the sequence (P09211 2-210 limits assumed) above

Row | inhibition at 20 µM (GSTπ; HL-60, 20 μM) [%] | cellular GSTπ inhibition (amounts of immunoprecipitable GST P1 and GST P1-1 vs DMSO control) (GSTπ; [6]) | concentration dependence of cellular GSTπ inhibitory effect (GSTπ; [6]) | SMILES | permeability through cell membrane [1] | IC50 (GST P1-1) [nM] | hematologic response [2] | tolerability [2] | colony formation of hematopoietic progenitor cells [3] | differentiation of HL-60 cells [4] | white blood cell production [5]
1 | – | – | – | N[C@@H](CCC(=O)N[C@@H](CSCc1ccccc1)C(=O)N[C@@H](C(=O)O)c1ccccc1)C(=O)O [TLK117, L-γ-glutamyl-S-(phenylmethyl)-L-cysteinyl-D-phenylglycine] (γGlu-Cys(Bn)-[dPhg]-OH) | poor permeability | ~400 | – | – | – | – | –
2 | ~90 | is a cellular GSTπ inhibitor | concentration dependent | CCOC(=O)[C@@H](N)CCC(=O)N[C@@H](CSCc1ccccc1)C(=O)N[C@@H](C(=O)OCC)c1ccccc1 [TLK199] | – | > 200000 | multilineage hematologic improvement | well tolerated | stimulate colony formation | induce the differentiation | increase white blood cell production

From patent US20070154963A1, “Method to determine whether a compound is a cellular GSTpi inhibitor” (priority 2005, published 2007)
